Source: PMC11768932, “Pharmacokinetic Evaluation of Neutral Sphinghomyelinase2 (nSMase2) Inhibitor Prodrugs in Mice and Dogs” (Pharmaceutics, 2024)
Several values for one entry are separate records, joined by “and”; a condition that tells them apart may be missing. Equal values may be shown once. Where a name gives a salt, the structure may show the parent alone. Read-outs that look alike come from different tables or passages of the source. Values belong to the molecule of their own block, whether it stands above or below them.

What was measured:
[1] = In vitro stability in dog plasma; format: in vitro ADME; details: 37 °C; for remaining at 1 h, 10 μM: dog, 60 min, read-out: In Vitro Stability in Plasma (% Remaining at 60 min) Mean ± SEM (n = 3), Dogs; for In Vitro Stability in Plasma (% Remaining at 60 min) Mean ± SEM (n = 3), Dogs: 10 μM
Method: (§1) The in vitro metabolic stability analysis of DPTIP prodrugs was performed in the plasma of mice, dogs, and humans, as previously described. Briefly, for plasma stability, 1 mL of plasma was spiked with 10 μM of the respective prodrug followed by incubation in an orbital shaker at 37 °C for 1 h (in triplicate). The samples from each incubation at predetermined time points (0 and 60 min) was quenched with 3× volume of acetonitrile containing the internal standard (IS; losartan: 0.5 μM). The samples were vortex-mixed for 30 s and centrifuged at 10,000× g for 10 min at 4 °C. Compound disappearance over time was monitored via a Dionex ultra-high-performance LC system coupled with a Q Exactive Focus orbitrap mass spectrometer (Thermo Fisher Scientific Inc., Waltham, MA, USA). Quantification of the prodrugs was performed in full scan mode (from m/z 75 to 1125) by comparing t = 0 min samples with t = 60 min samples.

[2] = In vitro stability in human plasma; format: in vitro ADME; details: 37 °C; for remaining at 1 h, 10 μM: human, 60 min, read-out: In Vitro Stability in Plasma (% Remaining at 60 min) Mean ± SEM (n = 3), Humans; for In Vitro Stability in Plasma (% Remaining at 60 min) Mean ± SEM (n = 3), Humans: 10 μM
Method: as §1

[3] = design: method as in PMID 8593015; details: valine ester prodrug, transport via PEPT1 in the intestine; cited from earlier work
[4] = Pharmacokinetic study in CES1−/− mice, released DPTIP in plasma after peroral dose; format: in vivo, C57BL/6 CES1−/− mice; details: PO 10 mg/kg DPTIP equivalent
Method: In vivo mice PK studies were carried out as previously described. Briefly, mice PK studies were carried out in CES1^−/− mice according to protocols approved by the Animal Care and Use Committee at Johns Hopkins University. The C57BL/6 CES1^−/^− mice were received from the United States Army Medical Research Institute of Chemical Defense, Maryland, and maintained on a 12 h light−dark cycle with ad libitum access to food and water. Prodrugs 3, 4, 5, 6, 8, and 9 were administered at a dose of 10 mg/kg equivalent of DPTIP to CES1^−/− mice as a single peroral (PO) dose made fresh in formulation (5% DMSO, 10% tween, and 85% saline v/v/v) prior to dosing. […]
The quantification of the released DPTIP was performed using our previously published method with minor modifications. […]
The plasma samples from both mice and dogs were processed through simple protein precipitation. […] A volume of 2 µL was injected onto the ultra-performance liquid chromatography instrument for quantitative analysis using a temperature-controlled autosampler operating at 4 °C. […]
The plasma concentrations (pmol/mL) for the mice were quantified, and plots of mean plasma concentration versus time were constructed using GraphPad Prism (10.3.0). Similarly, plasma concentrations (pmol/mL) for the dogs were measured and corresponding mean plasma concentration versus time plots were generated. […]

[5] = design: method as in PMID 35930706; details: cited from earlier work; for AUC0–t / Cmax / Tmax / t(1/2): released DPTIP in plasma, CES1−/− mice, PO 10 mg/kg DPTIP or equivalent, previously published
[6] = In vitro stability in mouse plasma; format: in vitro ADME; details: CES1−/−, 37 °C, 60 min, read-out: In Vitro Stability in Plasma (% Remaining at 60 min) Mean ± SEM (n = 3), Mice
Method: as §1

[7] = design: method as in PMID 35930706; details: CES1−/− mouse plasma, 10 μM, 37 °C, previously published; cited from earlier work
rat brain nSMase2 = tested on: rat brain nSMase2; design: method as in PMID 33395289; details: cited from earlier work
[8] = Pharmacokinetic study in dogs, released DPTIP in plasma after IV or peroral dose; format: in vivo, male Beagle dogs
Method: The PK studies in dogs were performed in accordance with the guidelines recommended by Pharmaron (San Diego, CA, USA) Institutional Animal Care and Use Committee. Briefly, male Beagle dogs 9 to 11 kg were obtained from the test facility’s colony of non-naïve animals. The animals were fasted overnight prior to dose administration and fed 4 h after dosing. The body weights were recorded and the animals were dosed with DPTIP, and prodrugs 2, 3, 4, 6, 7, 8, and 9 at 2 mg/kg equivalent of DPTIP as a single preoral dose PO (n = 2) with the exception of DPTIP IV dosed at 1 mg/kg (n = 1). All drugs were dissolved in the formulations (5% NMP, 5% Kolliphor, 30% PEG, and 60% water v/v) made freshly prior to dosing. The blood samples were collected via a cephalic vein at specified time points (0.083, 0.25, 0.5, 1, 2, 4, 6, 8, and 24 h) post-drug administration, and transferred into tubes containing sodium fluoride as a stabilizer (10 µL/mL of 500 µg/mL). The tubes were stored on wet ice until processed to plasma by centrifugation (3500× g at 4 °C for 10 min) within 30 min of collection. The plasma samples were transferred into individually labeled matrix tubes and stored at nominal −80 °C immediately (within 10 min of separation) until bioanalysis.
The quantification of the released DPTIP was performed using our previously published method with minor modifications. Briefly, calibration standards were prepared by spiking the DPTIP into naïve plasma from mice and dogs. All the calibration curves were constructed in the range of 1–3000 pmol/mL in the naïve sample-matched matrices in both the mouse and dog samples. Linear regression with 1/(nominal concentration) weighting factor was used for fitting the calibration curve. A correlation coefficient greater than 0.99 was considered acceptable in the analytical runs for all analyses.
The plasma samples from both mice and dogs were processed through simple protein precipitation. For this, 20 µL of plasma was mixed with 100 µL methanol containing 0.5 µM losartan (internal standards; IS) in low retention microcentrifuge tubes. All samples were vortex-mixed and centrifuged at 16,000× g for 5 min at 4 °C. A 50 µL of aliquot of supernatant was diluted with 50 µL of LC-MS water transferred to a 96-well polypropylene autosampler sealed with a Teflon cap. A volume of 2 µL was injected onto the ultra-performance liquid chromatography instrument for quantitative analysis using a temperature-controlled autosampler operating at 4 °C. Chromatographic separation was performed using a Thermo Scientific Vanquish ultra-high-performance system consisting of an analytical pump and coupled with a TSQ Altis mass spectrometer. The analytes were separated using an Agilent Eclipse Plus column (100 × 2.1 mm i.d, 1.8 μm) maintained at 35 °C. The (M+H)^+ ion transition of DPTIP (m/z 378.85 → 363.07, 200.05) and losartan (IS) (m/z 423.2 → 207.10, 180.88) were used. A gradient method was used with a mobile phase composition of 0.1% formic acid in acetonitrile and 0.1% formic acid in water.
The plasma concentrations (pmol/mL) for the mice were quantified, and plots of mean plasma concentration versus time were constructed using GraphPad Prism (10.3.0). Similarly, plasma concentrations (pmol/mL) for the dogs were measured and corresponding mean plasma concentration versus time plots were generated. The plasma concentrations in both mice and dogs were analyzed using a noncompartmental analysis method as implemented in the computer software program Phoenix WinNonlin version 8.4 (Certara USA Inc., Princeton, NJ, USA). The maximum plasma concentration (Cmax) and time to Cmax (Tmax) were the observed values. The area under the plasma concentration–time curve (AUC) values were calculated to the last quantifiable sample (AUC0–t) using the log-linear trapezoidal rule. The oral bioavailability was calculated by AUCPO divided by AUC IV with dose normalization. […]

nSMase2 = details: cited from earlier work
[9] = design: method as in PMID 30531925, PMID 30921693; details: cited from earlier work

Compound: COc1cc(-c2nc(-c3ccccc3)c(-c3cccs3)[nH]2)cc(OC)c1OC(=O)N(C)C [Prodrug 4]
- remaining at 1 h, 10 μM [1]: > 90%
- remaining at 1 h, 10 μM [2]: > 90%

- remaining at 1 h, 10 μM [1]: ~0%
- remaining at 1 h, 10 μM [2]: ~0%
Compound: COc1cc(-c2nc(-c3ccccc3)c(-c3cccs3)[nH]2)cc(OC)c1OC(=O)[C@@H](N)C(C)C [Prodrug 8, 2,6-Dimethoxy-4-(4-phenyl-5-(thiophen-2-yl)-1H-imidazol-2-yl) phenyl L-valinate hydrochloride]

Compound: CC(C)[C@H](N)C(=O)OCCOCn1cnc2c(=O)[nH]c(N)nc21 [valacyclovir]
- fold increase in oral bioavailability [3]: 3–5 fold

- In Vitro Stability in Plasma (% Remaining at 60 min) Mean ± SEM (n = 3), Dogs [1]: 62.9 ± 7.2%
- remaining at 1 h, 10 μM [1]: ~60%
- In Vitro Stability in Plasma (% Remaining at 60 min) Mean ± SEM (n = 3), Humans [2]: 79.3 ± 1.4%
- remaining at 1 h, 10 μM [2]: ~80%
- fold increase in DPTIP half-life compared to DPTIP [4]: no significant improvement
Compound: CCCCCC(=O)Oc1c(OC)cc(-c2nc(-c3ccccc3)c(-c3cccs3)[nH]2)cc1OC [Prodrug 3]

Compound: CCC1CC(N2CCCCC2)CC(CC)N1C(=O)Oc1c(OC)cc(-c2nc(-c3ccccc3)c(-c3cccs3)[nH]2)cc1OC (centres unmarked) [Prodrug 7]
- remaining at 1 h, 10 μM [1]: > 90%
- remaining at 1 h, 10 μM [2]: > 90%
- fold increase in DPTIP plasma exposure (AUC0–t) compared to DPTIP ([5]; mice, PO): > 4 fold and 4 fold
- AUC0–t [5]: 1047 ± 101 ^α pmol·h/mL
- Cmax [5]: 191 ± 39.6 nM
- Tmax [5]: 2 h
- t(1/2) [5]: 2.7 h

- remaining at 1 h, 10 μM [6]: 40 to 77%
- In Vitro Stability in Plasma (% Remaining at 60 min) Mean ± SEM (n = 3), Dogs [1]: 76.3 ± 1.8%
- In Vitro Stability in Plasma (% Remaining at 60 min) Mean ± SEM (n = 3), Humans [2]: 76.4 ± 1.4%
Compound: COc1cc(-c2nc(-c3ccccc3)c(-c3cccs3)[nH]2)cc(OC)c1OC(=O)[C@@H](NC(=O)[C@@H](N)C(C)C)C(C)C [Prodrug 9]

- remaining at 1 h, 10 μM [1]: > 90%
- remaining at 1 h, 10 μM [2]: > 90%
- fold increase in DPTIP half-life compared to DPTIP [4]: no significant improvement
Compound: COc1cc(-c2nc(-c3ccccc3)c(-c3cccs3)[nH]2)cc(OC)c1OCOP(=O)(O)O [Prodrug 6]

Compound: CCCCCN(C)C(=O)Oc1c(OC)cc(-c2nc(-c3ccccc3)c(-c3cccs3)[nH]2)cc1OC [Prodrug 5]
- In Vitro Stability in Plasma (% Remaining at 60 min) Mean ± SEM (n = 3), Dogs [1]: 49.5 ± 1.0%
- remaining at 1 h, 10 μM [1]: 40 to 77%
- In Vitro Stability in Plasma (% Remaining at 60 min) Mean ± SEM (n = 3), Humans [2]: 42.3 ± 2.1%
- remaining at 1 h, 10 μM [2]: 40 to 77%
- In Vitro Stability in Plasma (% Remaining at 60 min) Mean ± SEM (n = 3), Mice [7]: 59.9 ± 5.8 %

Compound: O=C(/C=C/c1ccc(/C=C/C(=O)Nc2ccc(C3=NCCN3)cc2)cc1)Nc1ccc(C2=NCCN2)cc1 [GW4869]
- IC50 (rat brain nSMase2): 1000 nM

Compound: COc1cc(-c2nc(-c3ccccc3)c(-c3cccs3)[nH]2)cc(OC)c1OC(=O)N1CCC(N2CCCCC2)CC1 [Prodrug 2]
- remaining at 1 h, 10 μM [1]: > 90%
- remaining at 1 h, 10 μM [2]: > 90%
- AUC0–t [5]: 273 ± 36.8 pmol·h/mL
- Cmax [5]: 149 ± 9.9 nM
- Tmax [5]: 1 h
- t(1/2) [5]: 1.4 h

- remaining at 1 h, 10 μM [1]: > 90%
- remaining at 1 h, 10 μM [2]: > 90%
- t(1/2) ([8]; IV 1 mg/kg (n = 1), 1 mg/kg): 3.71 h
- clearance ([8]; male, Beagle, dog, plasma, IV 1 mg/kg, read-out: clearance (CL)): 12 mL/min/kg
- C0 ([8]; male, Beagle, dog, plasma, IV 1 mg/kg, read-out: initial plasma concentration (C0)): 2500 nM
- Vd ([8]; male, Beagle, dog, plasma, IV 1 mg/kg, read-out: volume of distribution (Vd)): 3.8 L/kg
- half-life ([8]; male, Beagle, dog, plasma, iv, 1 mg/kg, IV 1 mg/kg (n = 1)): 3.7 h
- AUC(0-t) ([8]; male, Beagle, dog, plasma, iv, 1 mg/kg, IV 1 mg/kg, read-out: exposures (AUC0–t)): 3.9 µM·h
- Cmax ([8]; male, Beagle, dog, plasma, iv, 1 mg/kg, IV 1 mg/kg, read-out: maximum plasma concentration (Cmax)): 2400 nM
- AUC(0-t) ([8]; male, Beagle, dog, plasma, iv, 1 mg/kg, IV 1 mg/kg, value dose adjusted to 2 mg/kg, read-out: AUC0–t): 7.81 µM·h
- Cmax ([8]; male, Beagle, dog, plasma, iv, 1 mg/kg, IV 1 mg/kg, value dose adjusted to 2 mg/kg, read-out: Cmax): 4800 nM
Compound: COc1cc(-c2nc(-c3cccs3)c(-c3ccccc3)[nH]2)cc(OC)c1O [DPTIP, 2,6-dimethoxy-4-(5-phenyl-4-(thiophen-2-yl)-1H-imidazol-2-yl)-phenol]
- IC50 (nSMase2): 30 nM
- Cmax [5]: 307 ± 93.9 nM
- Tmax [5]: 0.25 h
- t(1/2) [5]: 0.46 h
- half-life (t1/2) ([9]; as given in abstract): ≤ 0.5 h
- half-life ([9]; mice): < 0.5 h
- oral bioavailability (%F) ([9]; mice): < 5%
